Counter-ions that a name gives are not always drawn.
What was measured:
human β3-adrenoceptor = target: T1, human β3-adrenoceptor (Homo sapiens, UniProt P13945); experiment: β3-adrenoceptor-mediated adenylyl cyclase activity (agonist); assay type: biochemical; details: CHO cell plasma membranes; for EC50: agonist concentration producing 50% activation of adenylyl cyclase, cAMP over 20 minutes, read-out: Beta-3 EC50; for Emax: maximum response relative to that produced by (-) isoprenaline, read-out: Beta-3 (IA), intrinsic activity
T1 construct: expressed in transfected cells; host or cells: CHO cells (stably transfected subclones; membranes)
T1 sequence (P13945 whole entry): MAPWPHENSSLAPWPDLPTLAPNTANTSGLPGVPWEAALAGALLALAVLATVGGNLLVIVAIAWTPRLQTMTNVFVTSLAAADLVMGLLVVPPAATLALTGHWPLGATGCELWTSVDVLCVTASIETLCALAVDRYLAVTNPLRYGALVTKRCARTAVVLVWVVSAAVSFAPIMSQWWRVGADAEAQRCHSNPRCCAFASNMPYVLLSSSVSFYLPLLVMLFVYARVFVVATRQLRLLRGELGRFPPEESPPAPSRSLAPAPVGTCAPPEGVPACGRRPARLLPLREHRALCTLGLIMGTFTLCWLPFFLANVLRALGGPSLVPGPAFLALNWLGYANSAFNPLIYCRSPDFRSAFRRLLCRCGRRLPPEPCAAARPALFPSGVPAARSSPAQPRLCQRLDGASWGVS
Procedure: (§1) Antagonist and Agonist Activity at Human β1, β2, and β3 -Adrenoceptors.
(§2) Subclones of CHO cells are stably transfected with each of the human β1, β2 and β3 -adrenoceptors^1. Cells are then disrupted by immersion in ice-cold lysis buffer (10 mM TRIS, 2 mM EDTA, pH 7.4) containing protease inhibitors leupeptin and benzamidine (5 μg/ml) and soyabean trypsin inhibitor (10 μg/ml). Membranes are prepared by the method of Bouvier el. al.^2 and stored in 1 ml aliquots in liquid N2 for future use.
β3 -Adrenoceptor-Mediated Adenylyl Cyclase Activity
Adenylyl cyclase activity is assayed by the method of Kirkham et. al.^3 by the addition of 40 μl (70-80 μg protein) to the incubation medium of the above CHO cell plasma membranes transfected with the human β3 -adrenoceptor. cAMP produced over 20 minutes is separated from ATP by the method of Salomon et al.^4. Agonist EC50 values and intrinsic activities are expressed as the concentration of agonist producing 50% activation of adenylyl cyclase and the maximum response produced by each agonist relative to that produced by (-) isoprenaline respectively.

human β1-adrenoceptor = target: T2, human β1-adrenoceptor (Homo sapiens, UniProt P08588); experiment: Antagonist binding at β1-adrenoceptors, displacement of [125I]-iodocyanopindolol; details: CHO cell plasma membranes; from binding IC50 by Cheng-Prusoff equation; read-out: Beta-1 Ki
T2 construct: expressed in transfected cells; host or cells: CHO cells (stably transfected subclones; membranes)
T2 sequence (P08588 whole entry): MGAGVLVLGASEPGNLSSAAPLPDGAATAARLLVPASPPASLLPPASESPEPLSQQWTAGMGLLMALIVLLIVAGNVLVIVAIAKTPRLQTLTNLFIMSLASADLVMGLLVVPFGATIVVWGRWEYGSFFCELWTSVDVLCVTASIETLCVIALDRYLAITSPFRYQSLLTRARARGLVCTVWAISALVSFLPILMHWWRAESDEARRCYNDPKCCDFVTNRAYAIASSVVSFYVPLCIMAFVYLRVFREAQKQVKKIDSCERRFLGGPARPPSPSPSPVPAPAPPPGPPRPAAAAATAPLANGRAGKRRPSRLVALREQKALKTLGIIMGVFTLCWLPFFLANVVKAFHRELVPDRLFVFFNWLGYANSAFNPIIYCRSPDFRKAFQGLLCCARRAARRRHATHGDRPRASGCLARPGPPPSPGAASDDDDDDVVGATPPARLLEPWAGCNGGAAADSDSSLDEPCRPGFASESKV
Procedure: as §1, §2
(§3) Antagonist Binding at β1, and β2 -Adrenoceptors
(§4) Displacement of [^125 I]-iodocyanopindolol from CHO cell plasma membranes transfected with either the human β1, or β2 -adrenoceptors is carried out by the method of Blin et. al.^5. Ki values (nM) are calculated from the binding IC50 values for each agonist, using the Cheng-Prusoff equation.

human β2-adrenoceptor = target: T3, human β2-adrenoceptor (Homo sapiens, UniProt P07550); experiment: Antagonist binding at β2-adrenoceptors, displacement of [125I]-iodocyanopindolol; details: CHO cell plasma membranes; from binding IC50 by Cheng-Prusoff equation; read-out: Beta-2 Ki
T3 construct: expressed in transfected cells; host or cells: CHO cells (stably transfected subclones; membranes)
T3 sequence (P07550 whole entry): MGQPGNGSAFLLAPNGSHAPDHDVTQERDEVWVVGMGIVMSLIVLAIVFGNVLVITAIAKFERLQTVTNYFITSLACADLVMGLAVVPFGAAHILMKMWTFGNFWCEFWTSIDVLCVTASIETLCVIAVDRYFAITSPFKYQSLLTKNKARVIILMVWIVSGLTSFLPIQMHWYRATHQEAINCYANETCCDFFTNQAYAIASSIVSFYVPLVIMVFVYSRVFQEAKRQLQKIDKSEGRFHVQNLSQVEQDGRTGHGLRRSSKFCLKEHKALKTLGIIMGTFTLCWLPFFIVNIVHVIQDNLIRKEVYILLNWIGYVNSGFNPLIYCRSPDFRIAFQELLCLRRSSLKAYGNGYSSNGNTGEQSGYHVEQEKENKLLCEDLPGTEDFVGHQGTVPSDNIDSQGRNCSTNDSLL
Procedure: as §1, §2, §3, §4

| SMILES | EC50 (human β3-adrenoceptor) [µM] | Emax (human β3-adrenoceptor) [%] | Ki (human β1-adrenoceptor) [µM] | Ki (human β2-adrenoceptor) [µM] |
| --- | --- | --- | --- | --- |
| C[C@H](Cc1ccc(OCP(=O)(O)c2ccccc2)cc1)NC[C@H](O)COc1ccc(O)c(CO)c1 (racemic) [Example 21, (SR)-4-{2-[2-Hydroxy-3-(4-hydroxy-3-hydroxymethylphenoxy)propylamino]propyl}phenoxymethyl-phenylphosphinic acid, lithium salt] | 1.26 | > 100 | 155 | 15 |
| C[C@H](Cc1ccc(OCP(=O)(O)OCCCOCc2ccccc2)cc1)NC[C@H](O)COc1ccc(O)c(CO)c1 [Example 17, (SR)-4-{2-[2-Hydroxy-3-(4-hydroxy-3-hydroxymethylphenoxy)propylamino]propyl}phenoxymethylphosphonic acid, (3-benzyloxypropyl)ester, lithium salt] | 1.1 | 70 | 21 | 10 |
| O=P(O)(COc1ccc(CCNC[C@H](O)COc2ccc(O)cc2)cc1)C1CCCCC1 [Example 29, (S)-4-{2-[2-Hydroxy-3-(4-hydroxyphenoxy)propylamino]ethyl}phenoxymethylcyclohexylphosphinic acid, lithium salt] | 1.7 | 72 | 288 | 269 |

Source: patent US5726165A, “Derivatives of 4-(2-aminoethyl)phenoxymethyl-phosphonic and -phosphinic acid and pharmaceutical and veterinary uses therefor” (SmithKline Beecham p.l.c., priority 1994, dated 1998)
